Source: a melting point compilation (Tetko et al.; mined from patent text by program, amines drawn as free bases though some values may be those of a salt)

Row | Structure (SMILES) | melting point [°C]
1 | NC1=NS(=O)N=C1NCCCOc1cc(CN2CCCCC2)ccn1 (stereo not drawn) | 154 to 158
2 | Nc1nc(N)c2c(ccc3c2ccn3Cc2ccc(Cl)cc2Cl)n1 | 249 to 250
3 | O=C(O)CC1CCc2c(c3ccccc3n2Cc2ccccc2)C1 (stereo not drawn) | 156 to 158
4 | CCOC(=O)N1CCC(C(=O)Cl)CC1 | 96 to 98
5 | N#Cc1ccc(C(=C2C3CC4CC(C3)CC2C4)c2ncc[nH]2)cc1 | 155
6 | COC(=O)C1=C(NC(=O)NC2CCCCC2)CSC1 | 154 to 155
7 | Brc1ncccc1-c1cccnc1 | 97 to 98
8 | Cc1ccc(O)c(I)c1 | 34.5 to 35.5
9 | O=C1c2ccccc2CCn2cnnc21 | 187
10 | Nc1ncc2cc(-c3c(Cl)cccc3Cl)c(=O)n(CCCc3ccccc3)c2n1 | 161 to 163
11 | Cc1cc(=O)n(Cc2ccccc2)c2ccccc12 | 109 to 111
12 | O=C(CSc1ccc(C2=NCC(c3cc(Cl)cc(Cl)c3)(C(F)(F)F)C2)cc1Cl)NCC(F)(F)F (stereo not drawn) | 189
13 | CC(O)=C(C#N)C(=O)Nc1cccc(F)c1 | 136 to 138
14 | N#Cc1ccc(N(Cc2ccc(OCc3ccccc3)cc2)n2cnnc2)cc1-c1ccc(F)cc1 | 211 to 213
15 | O=C(O)/C=C/c1ccc(N2CCCC2)cc1 | 265
16 | C#CC(CC(=O)OC(C)(C)C)N=Cc1ccccc1 (stereo not drawn) | 199 to 200
17 | CC(C)c1cc(S(=O)(=O)Cl)c(C(C)C)cc1Br | 80.5 to 83
18 | COC(=O)/C=C/c1ccc(CC(C)NCC(O)c2cccc(Br)c2)cc1 (stereo not drawn) | 105 to 111
19 | COc1c(C#N)ccc2c1Cc1ccccc1CS2 | 117 to 118
20 | Clc1cnc(N2CCNCC2)cn1 | 98 to 102
21 | CC(C)NC(=O)C1CC(=O)N(Cc2ccccc2)C1 (stereo not drawn) | 122 to 124
22 | O=C(O)C1CN(Cc2ccccc2)CCN1Cc1ccccc1 (stereo not drawn) | 184 to 185

Row | Structure (SMILES) | melting point [°C]
23 | CC12CCC(=O)C=C1CCC(=Cc1cccs1)C2=O (stereo not drawn) | 107
24 | O=[N+]([O-])c1ccc(NC2CCCCC2)c([N+](=O)[O-])c1 | 153
25 | Cc1cc(-c2cc(=O)n(C)[nH]2)c(F)cc1Cl | 155 to 156
26 | COCCc1nc2c(N)nc3cc(Br)cnc3c2n1CC(C)(C)O | 210 to 211
27 | CC(=O)C(CCC#N)(CCC#N)C(C)=O | 185 to 186
28 | CCOC(=O)c1oc(I)nc1C | 110 to 112
29 | CCOC(=O)CCc1cccc(N(C)C)c1 | 94 to 98
30 | CN(C)c1c(C#N)c(C(F)(F)F)nn1-c1c(Cl)cc(C(F)(F)F)cc1Cl | 105 to 107
31 | COC(=O)NNC(=S)Cc1cccc(C(F)(F)F)c1 | 131 to 132
32 | COc1ccc(CCl)cc1OC | 50 to 51
33 | O=[N+]([O-])c1cn2c(n1)O[C@@H](COc1ccc(N3CCC(CCc4ccc(OC(F)(F)F)cc4)CC3)cc1)C2 | 209 to 212
34 | O=C(N1CCOCC1)C(Cl)(c1ccccc1)c1ccccc1 | 113
35 | CC(C)N(c1ccc(O)cc1)S(=O)(=O)c1ccc(O)cc1 | 158 to 159
36 | COc1ccc([N+](=O)[O-])c2nccc(Cl)c12 | 125 to 138
37 | CC(=N)NS(=O)(=O)C=Cc1ccccc1[N+](=O)[O-] | 175 to 178
38 | C=CCC(C)(C)C(NC(=O)c1ccc(Cl)cc1)NC(=NC#N)Nc1cccnc1 (stereo not drawn) | 97 to 98
39 | CCOC(=O)C1=CC(C)(C(=O)N(C)C)SC1N (stereo not drawn) | 122 to 124
40 | CCc1cc(OCc2ccccc2)c2c(Cl)cccc2n1 | 78 to 80
41 | O=C(c1ccc(F)cc1)C1CCN(CCN2c3cccc4cccc(c34)S2(=O)=O)CC1 | 145
42 | CCc1nc2c(N)nc3cc(CCCN)ccc3c2n1CC1CCOCC1 | 217 to 220
43 | COc1cc(-c2nc(C)nn2C)cc2oc(=O)c(C)c(C)c12 | 180
44 | CNC(=O)c1cc2c(nc(C)n2C)c2c1CCC1(Cc3ccccc3C1)N2 | 237 to 238

Row | Structure (SMILES) | melting point [°C]
45 | COc1nc2ccccc2cc1NC(=O)N1CCN(c2cccc3ccccc23)CC1 | 158 to 160
46 | CC1=CSC(C)C(=O)N1 (stereo not drawn) | 78 to 80
47 | COc1ccccc1N1CCN(CC(O)COc2ccccc2-c2ccnc(N)n2)CC1 (stereo not drawn) | 147 to 149
48 | Cc1noc(C)c1Cn1cc(-n2c(=O)n(C)n(Cc3ccccc3)c2=O)cn1 | 124 to 126
49 | Cc1c(SCCCN2CCN(Cc3ccncc3)CC2)ccnc1CNc1ncncc1Cl | 149 to 151
50 | CC(O)=C1C(=O)CC(c2ccccc2Cl)CC1=O (stereo not drawn) | 100 to 101
51 | Cc1c(-c2ccc(O)cc2)n(Cc2ccc(C#CCN3CCCC3)cc2)c2ccc(O)cc12 | 174 to 176
52 | C#CCCN1CC=C(c2ccccc2)CC1 | 36.5 to 37.5
53 | O=S(=O)(C(=CN=c1ccc(Br)cn1Cc1ccccc1)S(=O)(=O)c1ccccc1)c1ccccc1 | 216 to 217
54 | CSCC(=O)[C@H](Cc1ccccc1)NC(=O)[C@H](CC(C)C)NS(=O)(=O)c1ccccc1 | 133 to 136
55 | Cc1c(Cl)sc2c1c(-c1ccccc1F)nc(=O)n2C | 175 to 176
56 | N[C@@H]1C(=O)N(S(=O)(=O)O)[C@H]1C1CCCCC1 (relative stereo) | 135 to 138
57 | CC(=NO)c1ccccc1N | 55 to 60
58 | Cc1cccc(-c2nc(O)c(C)s2)c1Cl | 183 to 184
59 | O=[N+]([O-])c1ccc2c(c1)CC(O)c1ccccc1S2 (stereo not drawn) | 144 to 146
60 | CC(=O)C(=NO)c1ccc(F)cc1F | 126 to 129
61 | Cc1csc(C(=O)C(F)(F)F)n1 | 77 to 81
62 | Cc1oc(-c2ccccc2)nc1CCc1ccc(/C=C/C=C/C=O)cc1 | 107 to 108
63 | CC(=O)NC[C@H]1CN(c2ccc(N3CCC(=CC#N)C(C)(C)C3)c(F)c2)C(=O)O1 | 150 to 152
64 | O=C(c1ccc([N+](=O)[O-])cc1)N1CCCCc2sc(Cl)c(Cl)c21 | 140 to 142
65 | CCOC(=O)CCc1cn(Cc2ccccc2)nc1O | 75 to 76

The next lines start with the values.

Row | melting point [°C] | Structure (SMILES)
66 | 71 to 72 | COc1ccc(CN2C(=O)CC2COS(C)(=O)=O)c(OC)c1 (stereo not drawn)
67 | 129 to 131 | CC(C)c1nc(-c2cccc3c2OCO3)cc(-c2ccc(F)cc2)c1C=C(Br)Br
68 | 135 to 136 | CCCc1c(OCCCS(=O)(=O)c2ccc(C3=CCC(=O)O3)cc2)ccc(C(C)=O)c1O
69 | 210 to 212 | COCCOc1cc2ncc(C#N)c(Nc3cc(OC)c(Cl)cc3Cl)c2cc1OC
70 | 197 to 198 | C=CCc1c2nc(C(=O)OC)cc(Cl)c2cc2c(=O)cc(C(=O)OCC)oc12
71 | 141 to 142 | Cc1c(C)c2c(c(C)c1OC(=O)CCC(=O)O)C(c1ccc(C(C)C)cc1)C(C)(C)O2 (stereo not drawn)
72 | 159 to 162 | COc1ccc(Sc2[nH]cc(C(=O)O)c2Sc2ccc(OC)cc2)cc1
73 | 300 to 303 | CCc1ccc2c(c1)C(=O)c1ccc(C(=O)O)cc1S2(=O)=O
74 | 173 to 174 | Cc1cc(OCCN2CCc3ccc(NS(C)(=O)=O)cc3CC2)ccc1NS(C)(=O)=O
75 | 154 to 156 | CCOC(=O)Cc1ccc(NC(=O)C(COc2ccc(Cl)cc2)NS(=O)(=O)c2ccc(Br)cc2)cc1 (racemic)
76 | 215 to 216 | O=C(O)CCc1ccnc(-c2nc(=O)c3ccccc3s2)c1
77 | 196 to 202 | CCOc1c(-c2ccc3cc(NS(C)(=O)=O)ccc3c2)cc(-n2ccc(=O)[nH]c2=O)cc1C(C)(C)C
78 | 250 to 252 | N#Cc1ccc(-c2ccccc2OCC2CC2)[nH]c1=O
79 | 200 to 202 | COc1ccc(C(=O)Nc2ccccc2)cc1NS(=O)(=O)c1ccc(C)cc1
80 | 220 to 223 | COC(=O)CNS(=O)(=O)c1ccc(CCN2CC=C(c3c[nH]c(-c4ccc(F)cc4)c3-c3ccncc3)CC2)cc1
81 | 83 to 86 | Cc1ccc(S(=O)(=O)OCC2Cc3cccc(-c4ccc(F)cc4)c3O2)cc1 (stereo not drawn)
82 | 164 to 166 | CC(=O)SCC(Cc1ccc(F)cc1F)C(=O)Nc1cccc(C(=O)O)c1 (stereo not drawn)
83 | 126 to 127 | CCOC(=O)CCc1cnc(-c2cc3cccc(N(C)S(=O)(=O)c4cccs4)c3[nH]2)s1
84 | 102 to 105 | CCCCn1c(=O)c(NC(=O)Nc2cc(CO)ccc2C(C)(C)C)c(-c2cccc(OC)c2)c2cccnc21

Row | melting point [°C] | Structure (SMILES)
85 | 157 to 159 | CC[C@H]1COC(=O)N1c1nc(-c2ccc(C#N)cc2)c(Cl)s1
86 | 172 to 174 | COc1ccc(NC(=O)c2ccc([N+](=O)[O-])cc2)c(OC)c1
87 | 149 | COC(=O)/C=C/c1ccc(OC)cc1N
88 | 167 to 169 | C#Cc1c(N)cc(-c2ccc(Cl)c(OC)c2F)nc1C(=O)OC
89 | 134 to 136 | CCN1C(=O)N(c2cc(OC)cc(OC)c2)Cc2cnc(SC)nc21
90 | 96 to 98 | COc1cc(C(C)=O)ccc1NCCCN1CCC(c2noc3cc(F)ccc23)CC1
91 | 60 | COC(=O)c1ccc(C(O)c2cc3cc(C(F)(F)F)ccc3n2S(=O)(=O)c2cccc(C(C)(C)C)c2)cc1 (racemic)
92 | 163 to 165 | CCCCOc1c2c(nc3c1cnn3CC)C(O)c1ccccc1CC2 (stereo not drawn)
93 | 122 | CC(C(=O)O)c1ccc2c(c1)CCc1ccccc1C2=O (stereo not drawn)
94 | 150 to 165 | CC1=NC2CN=C(c3ccccc3F)c3cc(Cl)ccc3C2C(=O)N1 (stereo not drawn)
95 | 234 to 235 | CC(C)(C(=O)O)c1ccc(CCNC(=O)c2ccc(Cl)cc2)cc1
96 | 297 to 299 | CC1CC(=O)c2c(C(=O)Nc3ccc4c(c3)OC(C)(C)O4)c[nH]c2C1 (stereo not drawn)
97 | 212 to 213 | O=C(Cn1c(=O)n(-c2ccc3c(c2)OCO3)c2ncccc21)N1CCOCC1
98 | 125 to 126 | CCCOc1ccc2c(c1)C(=O)C(C(=O)OC)=C2c1ccc2c(c1)OCO2
99 | 204 to 205 | CN(c1cccc2c(F)c(C3=NCC(CC(N)=O)S3)[nH]c12)S(=O)(=O)c1cccs1 (stereo not drawn)
100 | 139 to 144 | COc1cc2c(cc1OC)/C(=N/OCc1ccc([N+](=O)[O-])cc1)CC2
101 | 205 to 207 | O=C(C1=C(c2ccccc2)c2ccc(O)cc2CC1)c1ccc(O)cc1
102 | 73 to 76 | COC(=O)Cc1cc(Br)c(Sc2ccc(OC)c(C(C)C)c2)c(Br)c1
103 | 101 to 102 | O=C(/C=C/[C@@H]1[C@H]2CC(=O)O[C@H]2C[C@H]1OC(=O)c1ccccc1)COc1cccc(Cl)c1
